Where two headings read alike, the source gives them in different places.
Key:
androgen receptor (AR) = assay: AR protein expression down-regulation in LNCaP cells (Western blot); assay type: cell-based, human
Experimental: All five known ARDAs (FIG. 1) were evaluated for their ability to decrease AR protein expression in a dose dependent manner and dose response curves were generated to determine their EC50 values.
These compounds were further evaluated to determine their EC50 values (from dose response curves).
For immunoblot detection of the AR, LNCaP cells were cultured as described above in T25 flasks. Cells were treated with various concentrations of ARDAs and whole cell lysates were prepared using lysis buffer containing 0.1M Tris, 0.5% Triton X-100, and protease inhibitor. Protein content was determined using the Bradford Assay (Bio-Rad, Hercules, Calif., USA). Protein was subjected to SDS-PAGE (10% acrylamide) and transferred onto nitrocellulose membrane. The blots were blocked overnight in 5% nonfat milk in PBS-T buffer at 4° C. Monoclonal antibody was used against the AR (AR441; sc-7305; Santa Cruz Biotechnology, Santa Cruz, Calif.; 1:500 dilution) at room temperature for one hour. Membranes were then incubated with a goat anti-mouse IgG secondary antibody conjugated to horseradish peroxidase (Bio-Rad cat #170-6516; 1:2000 dilution) at room temperature for one hour. Blots were rinsed with PBS-T between each step and specific bands were visualized by enhanced chemiluminescence (ECL; Amersham Biosciences, Arlington Heights, Ill., USA). Equivalent loading of samples was determined by reprobing membranes with β-actin (Calbiochem, USA). Protein expression was normalized to β-actin.

LNCaP cells = assay: Cell growth inhibition (MTT colorimetric assay), LNCaP; assay type: cell-based, human; details: for GI50: LNCaP (mutant AR), MTT, means of three experiments, called IC50, read-out: Cytotoxicity GI50 (nM) LNCaP
Text: (§1) Lead optimization of BTB01434 and further biological studies: BTB01434 (Maybridge) was used as a lead molecule to synthesize new molecules. Although this compound was not as potent as some of the others (cf. Table 4), it was chosen for its ease of modification. New compounds (6-23) were developed using the diaryl sulfonamide compound BTB01434 (FIG. 6) as a scaffold. […] Including new BTB01434 analogs, including diaryl sulfonamide analogs bearing various substituents on the phenyl rings (series A), aryl amide analogs (series B), and amine analogs (series C). These new compounds were evaluated for cell growth inhibition in two human prostate cancer cell lines, (LNCaP and PC-3) by MTT assay. Based on the structures and anti-prostate cancer activities of the new compounds, a structure-activity relationship (SAR) was formulated.
Androgen-dependent LNCaP cells were obtained from American Type Culture Collection (Rockville, Md., USA). Cells were maintained in RPMI 1640 medium supplemented with 10% fetal bovine serum (Atlanta Biologicals, Lawrenceville, Ga., USA) and 1% penicillin/streptomycin. Cells were grown as a monolayer in T75 or T150 tissue culture flasks in a humidified incubator (5% CO2, 95% air) at 37° C.
(§2) LNCaP cells were seeded in 24 well plates (Corning Costar) at a density of 2×10^4 cells per well per 1 mL of medium. Cell were allowed to adhere to the plate for 24 hours and then treated with different concentrations of ARDAs dissolved in DMSO. Cells were treated for five days with renewal of ARDA and media on day 3. On the fifth day, medium was renewed and 100 μL of MTT (3-(4,5-dimethylthiazol-2-yl)-2,5-diphenyl-2H-tetrazolium bromide from Sigma) solution (0.5 mg MTT/mL of medium) was added to the medium such that the ratio of MTT:medium was 1:10. The cells were incubated with MTT for 2 hours. The medium was then aspirated and 500 μL of DMSO was added to solubilize the violet MTT-formazan product. The absorbance at 560 nm was measured by spectrophotometry (Victor 1420 multilabel counted, Wallac). For each concentration of ARDA there were triplicate wells in each independent experiment. IC50 values were calculated by nonlinear regression analysis using GraphPad Prism software.

PC-3 cells = assay: Cell growth inhibition (MTT assay), PC-3; assay type: cell-based, human; details: PC-3 (AR null), means of three experiments, called IC50, read-out: Cytotoxicity GI50 (nM) PC-3
Text: as §1
Inhibition of prostate cancer cell proliferation and SAR: The exemplary compounds were then tested for their ability to inhibit cell viability in both the LNCaP (mutant AR) and PC-3 (AR null) cell lines (Table 5).
as §2

wild-type AR = biological target: T1, wild-type AR (Homo sapiens, UniProt P10275); assay: Competitive androgen receptor binding with [3H]-R1881 in PC-3-AR cells; details: for reduction of [3H]-R1881 binding: PC-3-AR cells
T1 construct: expressed in transfected cells; host or cells: PC-3 (stably transfected, PC-3-AR)
T1 sequence (P10275 1-920): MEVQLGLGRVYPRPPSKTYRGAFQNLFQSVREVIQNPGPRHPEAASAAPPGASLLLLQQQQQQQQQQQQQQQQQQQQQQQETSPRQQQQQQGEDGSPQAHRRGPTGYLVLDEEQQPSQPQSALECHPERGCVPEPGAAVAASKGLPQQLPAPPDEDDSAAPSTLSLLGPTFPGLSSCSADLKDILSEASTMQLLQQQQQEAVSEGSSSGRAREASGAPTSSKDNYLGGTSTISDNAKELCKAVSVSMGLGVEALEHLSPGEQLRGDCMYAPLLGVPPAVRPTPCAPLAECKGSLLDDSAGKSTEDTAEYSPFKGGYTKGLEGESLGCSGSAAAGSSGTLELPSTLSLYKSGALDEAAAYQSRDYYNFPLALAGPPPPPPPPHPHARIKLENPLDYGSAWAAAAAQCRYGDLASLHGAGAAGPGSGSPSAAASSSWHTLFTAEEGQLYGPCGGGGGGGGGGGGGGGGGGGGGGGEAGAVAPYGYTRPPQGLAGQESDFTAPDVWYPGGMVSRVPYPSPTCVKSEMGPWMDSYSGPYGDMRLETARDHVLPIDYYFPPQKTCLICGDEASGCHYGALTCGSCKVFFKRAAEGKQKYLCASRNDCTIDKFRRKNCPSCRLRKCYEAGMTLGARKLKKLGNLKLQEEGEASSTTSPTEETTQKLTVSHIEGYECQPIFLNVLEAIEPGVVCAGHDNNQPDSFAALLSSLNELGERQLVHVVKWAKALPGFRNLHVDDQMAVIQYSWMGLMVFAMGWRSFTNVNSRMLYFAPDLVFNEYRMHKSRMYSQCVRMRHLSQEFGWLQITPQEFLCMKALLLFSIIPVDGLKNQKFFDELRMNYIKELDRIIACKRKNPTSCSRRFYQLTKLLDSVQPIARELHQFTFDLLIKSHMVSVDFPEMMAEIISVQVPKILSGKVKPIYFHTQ
Experimental: In both cell lines, compounds 9 and 11 were able to effectively compete with labeled R1881 in a dose-dependent fashion (FIG. 11). In PC-3-AR cells compound II reduced [^3H]-R1881 binding by 65% and 80% at 10 μM and 20 μM, respectively. […] Compound 9 reduced [^3H]-R1881 binding by 50% and 65% at 10 μM and 20 μM, respectively, and was equipotent in both cell lines.
(§3) These assays were performed as previously described.^10

[1] = system: AR-mediated transcription (LNCaP-AR); assay: Luciferase transactivation assay in LNCaP cells transfected with ARR2-Luc; assay type: cell-based, human; details: for effect on luciferase activity, compound alone: without DHT
Experimental: FIG. 12. […] Cells in steroid-free medium were treated with vehicle, or increasing concentrations of either 9 or 11 with and without 5 nM DHT for 18 h. Cells were then assayed for luciferase activity using a know assay.^10
To determine if the compounds act as AR agonists or antagonists, androgen regulated transcriptional activation studies were performed in LNCaP cells transiently transfected with the probasin luciferase reported construct ARR2-Luc.
as §3

[2] = AR down-regulation, LNCaP cells (Table 5), read-out: ARDA EC50
[3] = decrease of AR protein expression, LNCaP cells, training set ARDAs (Table 1), read-out: EC50 values

Compound	GI50 (LNCaP cells; Homo sapiens, LNCaP) [nM]	GI50 (PC-3 cells; Homo sapiens) [nM]	other results
Cc1ccc(S(=O)(=O)Nc2ccc(C)cc2[N+](=O)[O-])cc1 [BTB01434, reference compound]	39800	43700	EC50 (androgen receptor (AR); [2]): 76 µM; EC50 (androgen receptor (AR); LNCaP cells, database hits (Table 4), read-out: EC50 (μM), ability to down-regulate AR protein expression): 76 µM; IC50 (LNCaP cells; Homo sapiens, LNCaP cells (Table 4), read-out: IC50 (μM), effect on LNCaP cell viability): 39.8 µM
Cc1ccc(S(=O)(=O)Nc2ccccc2[N+](=O)[O-])cc1 [Compound 6, [(4-Methylphenyl)sulfonyl](2-nitrophenyl)amine]	83	50100	EC50 (androgen receptor (AR); [2]): > 150 µM
Cc1ccc(NS(=O)(=O)c2ccccc2)c([N+](=O)[O-])c1 [Compound 8, (4-Methyl-2-nitrophenyl)(phenylsulfonyl)amine]	2.95	60200	
Cc1ccc(NS(=O)(=O)c2ccccc2)c(C(=O)O)c1 [Compound 10, 5-Methyl-2-[(phenylsulfonyl)amino]benzoic acid]	18.2		
Cc1ccc(NS(=O)(=O)c2ccc(C)cc2)cc1 [Compound 11, (4-Methylphenyl)[(4-methylphenyl)sulfonyl]amine]	1.45	30200	greater inhibition of [3H]-R1881 binding to wild-type AR than to mutated receptor (wild-type AR; 10 μM and above): approximately 20%; reduction of [3H]-R1881 binding (wild-type AR; 10 μM): 65%; reduction of [3H]-R1881 binding (wild-type AR; 20 μM): 80%; effect on luciferase activity, compound alone ([1]; 0.1 μM): no effect; reduction of luciferase expression in the presence of DHT ([1]; 10 μM, with 5 nM DHT): 80%; effect on luciferase activity, compound alone ([1]; 10 μM): no effect
Cc1ccc(NS(=O)(=O)c2ccc(F)cc2)c(C(=O)O)c1 [Compound 12, {[(4-fluorophenyl)sulfonyl]amino}-5-methylbenzoicacid]			GI50 (LNCaP cells): 10700 nM; GI50 (PC-3 cells): > 100000 nM
Cc1ccc(C#N)c(NS(=O)(=O)c2ccc(F)cc2)c1 [Compound 13, 2-{[(4-fluorophenyl)sulfonyl]amino}-4-methylbenzenecarbonitrile]	30200	~100000	
Cc1ccc(-c2nnn[nH]2)c(NS(=O)(=O)c2ccc(F)cc2)c1 [Compound 14, (2-(1H-1,2,3,4-tetrazole-5-yl)-5-methylphenyl)[(4-fluorophenyl)sulfonyl]amine]	> 100000	> 100000	
Cc1ccc(NS(=O)(=O)c2ccccc2)cc1 [Compound 15, (4-methylphenyl)(phenylsulfonyl)amine]	21300	13800	
Cc1ccc(S(=O)(=O)Nc2ccccc2)cc1 [Compound 16, [(4-Methylphenyl)sulfonyl]phenylamine]	24000	38900	
O=S(=O)(Nc1ccccc1)c1ccccc1 [Compound 17, Phenyl(phenylsulfonyl)amine]	53500	> 100000	
Cc1ccc(N(C)S(=O)(=O)c2ccc(C)cc2)cc1 [Compound 18, Methyl(4-methylphenyl)[(4-methylphenyl)sulfonyl]amine]	89200	44700	
Cc1ccc(NC(=O)c2ccc(C)cc2)cc1 [Compound 19, (4-Methylphenyl)-N-(4-methylphenyl)carboxamide]	55000	26900	
Cc1ccc(CNc2ccc(C)cc2)cc1 [Compound 21, (4-Methylphenyl) [(4-methylphenyl)methyl]amine]	19000	29500	
Cc1ccc(NCc2ccccc2)cc1 [Compound 23, (4-Methylphenyl)benzylamine]	> 100000	52400	
COc1cc(/C=C/C(=O)CC(=O)/C=C/c2ccc(O)c(OC)c2)ccc1O [Curcumin (4), curcumin]			EC50 (androgen receptor (AR); [3]): 35 µM
C[C@]12CCC(=O)C[C@@H]1CC[C@@H]1[C@@H]2CC[C@]2(C)[C@@H](O)CC[C@@H]12 [DHT, dihydrotestosterone, reference compound]			stimulation of luciferase activity ([1]; 5 nM): approximately 200 fold
O=C(O)c1ccccc1Nc1cccc(C(F)(F)F)c1 [Flufenamic acid (3), flufenamic acid]			EC50 (androgen receptor (AR); [3]): ~200 µM

— patent US7960435B2, “Anti-cancer agents and androgen inhibition activity compound” (University of Maryland, Baltimore, priority 2006, dated 2011)
